Test system: HSPC-pDCs
Experiment: Phenotypic analysis of pDC surface markers by flow cytometry
Type: cell-based, human
Conditions: pDCs isolated from AA-supplemented culture at day 16
Protocol: Flow cytometry was used to immunophenotype pDCs. Briefly, cells were spun down and resuspended in 100 μL PBS. Cells were stained with Ghost Dye Red 780 Viability Dye (13-0865, Tonbo) for 30 min before being washed with FACS buffer (PBS with 2% FCS and 1 mM EDTA). Cells were subsequently resuspended in 50 μL FACS buffer and stained with the following antibodies: FITC anti-human Lineage Cocktail (CD3 (UCHT1), CD14 (HCD14), CD16 (3G8), CD19 (HIB19), CD20 (2H7) and CD56 (HCD56), 348801, BioLegend), APC anti-human CD11c (3.9, 20-0116-T100, TonboBio), PE anti-human CD123 (6H6, 12-1239-42, eBioscience), PE-Cy7 anti-human CD303 (201a, 25-9818-42, eBioscience). Cells were stained for 30 min before being washed three times in FACS buffer. To validate the expression CD34+ on HSPCs, cells were stained with PE-Cy7 anti-human CD34 (581, 343516, BioLegend) for 30 min, washed three times in FACS buffer before being resuspended in FACS buffer. PI was added to the cells as a viability dye in a concentration of 1:100 (13-6990 Tonbo Bioscience). Fluorescence intensities were measured using the Quanteon flow cytometer equipped with 4 lasers (405 nm, 488 nm, 561 nm, and 637 nm) and 29 photomultipliers (PMT) detectors or the NovoCyte flow cytometer with two lasers (488 nm and 561 nm) and 12 PMT detectors (ACEA Biosciences, Inc.). Data analysis was done using FlowJo (Version 10, Tree Star, Ashland, OR, USA). […]

O=C1O[C@H]([C@@H](O)CO)C(O)=C1O [ascorbic acid]
surface expression levels of CD303: lower expression levels

From patent US20240141294A1, “CGMP COMPLIANT PRODUCTION AND EXPANSION OF PLASMACYTOID DENDRITIC CELLS FROM HEMATOPOIETIC STEM AND PROGENITOR CELLS” (AARHUS UNIVERSITET, priority 2021, published 2024)
